# Measured values published in ChEMBL document CHEMBL1201862, “PubChem BioAssay data set” (2004).
#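 Growth conditions: 96-well plates. Treatment: test compound, 48 hours, 5 concentrations. Analysis: linear interpolation between bracketing concentrations; unreached endpoints set to highest concentration. GI50 = concentration required for 50% inhibition of growth.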 Calls of active or inactive are those of the source. No stated cut-off is given here; in the data, active = GI50 up to about 1.1 µM and inactive = higher.
# What was measured:
# Experiment in all cases: inhibition of tumour cell growth, NCI panel, 48 h
# MDA-MB-435 = system: MDA-MB-435
# SK-MEL-28 = system: SK-MEL-28
# OVCAR-8 = system: OVCAR-8
# SNB-75 = system: SNB-75
# RPMI-8226 = system: RPMI-8226
# Malme-3M = system: Malme-3M
# HCT-116 = system: HCT-116
# K562 = system: K562
# HCT-15 = system: HCT-15
# NCI-H460 = system: NCI-H460
# OVCAR-4 = system: OVCAR-4
# KM12 = system: KM12
# SNB-19 = system: SNB-19
# SK-MEL-2 = system: SK-MEL-2
# MOLT-4 = system: MOLT-4
# ACHN = system: ACHN
# NCI-H522 = system: NCI-H522
# BT-549 = system: BT-549
# IGROV-1 = system: IGROV-1
# PC-3 = system: PC-3
# 786-0 = system: 786-0
# MDA-MB-231 = system: MDA-MB-231
# RXF 393 = system: RXF 393
# CCRF-CEM = system: CCRF-CEM
# HOP-92 = system: HOP-92
# Hs-578T = system: Hs-578T
# NCI-H23 = system: NCI-H23
# NCI/ADR-RES = system: NCI/ADR-RES
# MCF7 = system: MCF7
# SF-295 = system: SF-295
# CAKI-1 = system: CAKI-1
# COLO 205 = system: COLO 205
# HL-60 = system: HL-60
# EKVX = system: EKVX
# OVCAR-5 = system: OVCAR-5
# HCC 2998 = system: HCC 2998
# UACC-62 = system: UACC-62
# T47D = system: T47D
# SK-MEL-5 = system: SK-MEL-5
# OVCAR-3 = system: OVCAR-3
# UO-31 = system: UO-31
# HT-29 = system: HT-29
# SF-268 = system: SF-268
# SR = system: SR
# A498 = system: A498
# SF-539 = system: SF-539
# SW-620 = system: SW-620
# HOP-62 = system: HOP-62
# UACC-257 = system: UACC-257
# MDA-N = system: MDA-N
# M14 = system: M14
# SN12C = system: SN12C
# TK-10 = system: TK-10
# A549 = system: A549
# SK-OV-3 = system: SK-OV-3
# DU-145 = system: DU-145
# U-251 = system: U-251
# NCI-H226 = system: NCI-H226
# LOX IMVI = system: LOX IMVI
structure (smiles),measurement,setting,value
CC1(C)C2CCC1(CS(=O)(=O)Nc1ccccc1)C(=O)C2 (stereo not drawn),GI50,MDA-MB-435,> 100 µM (inactive)
same,GI50,SK-MEL-28,> 100 µM (inactive)
same,GI50,OVCAR-8,> 100 µM (inactive)
same,GI50,SNB-75,89.9 µM (inactive)
same,GI50,RPMI-8226,> 100 µM (inactive)
same,GI50,Malme-3M,> 100 µM (inactive)
same,GI50,HCT-116,> 100 µM (inactive)
same,GI50,K562,> 100 µM (inactive)
same,GI50,HCT-15,> 100 µM
same,GI50,NCI-H460,> 100 µM (inactive)
same,GI50,OVCAR-4,> 100 µM (inactive)
same,GI50,KM12,> 100 µM (inactive)
same,GI50,SNB-19,> 100 µM (inactive)
same,GI50,SK-MEL-2,> 100 µM (inactive)
same,GI50,MOLT-4,> 100 µM (inactive)
same,GI50,ACHN,> 100 µM (inactive)
same,GI50,NCI-H522,> 100 µM (inactive)
same,GI50,BT-549,> 100 µM (inactive)
same,GI50,IGROV-1,> 100 µM (inactive)
same,GI50,PC-3,> 100 µM (inactive)
same,GI50,786-0,> 100 µM (inactive)
same,GI50,MDA-MB-231,> 100 µM (inactive)
same,GI50,RXF 393,> 100 µM (inactive)
same,GI50,CCRF-CEM,11.7 µM (inactive)
same,GI50,HOP-92,> 100 µM (inactive)
same,GI50,Hs-578T,> 100 µM (inactive)
same,GI50,NCI-H23,> 100 µM (inactive)
same,GI50,NCI/ADR-RES,> 100 µM (inactive)
same,GI50,MCF7,> 100 µM (inactive)
same,GI50,SF-295,> 100 µM (inactive)
same,GI50,CAKI-1,> 100 µM (inactive)
same,GI50,COLO 205,> 100 µM (inactive)
same,GI50,HL-60,> 100 µM (inactive)
same,GI50,EKVX,> 100 µM (inactive)
same,GI50,OVCAR-5,> 100 µM (inactive)
same,GI50,HCC 2998,> 100 µM (inactive)
same,GI50,UACC-62,> 100 µM (inactive)
same,GI50,T47D,> 100 µM (inactive)
same,GI50,SK-MEL-5,> 100 µM (inactive)
same,GI50,OVCAR-3,> 100 µM (inactive)
same,GI50,UO-31,75.9 µM (inactive)
same,GI50,HT-29,> 100 µM (inactive)
same,GI50,SF-268,> 100 µM (inactive)
same,GI50,SR,35.5 µM (inactive)
same,GI50,A498,> 100 µM (inactive)
same,GI50,SF-539,> 100 µM (inactive)
same,GI50,SW-620,> 100 µM (inactive)
same,GI50,HOP-62,> 100 µM (inactive)
same,GI50,UACC-257,> 100 µM (inactive)
same,GI50,MDA-N,> 100 µM (inactive)
same,GI50,M14,> 100 µM (inactive)
same,GI50,SN12C,> 100 µM (inactive)
same,GI50,TK-10,> 100 µM (inactive)
same,GI50,A549,> 100 µM (inactive)
same,GI50,SK-OV-3,> 100 µM (inactive)
same,GI50,DU-145,> 100 µM (inactive)
same,GI50,U-251,> 100 µM (inactive)
same,GI50,NCI-H226,> 100 µM (inactive)
same,GI50,LOX IMVI,> 100 µM (inactive)
O=C1c2c(ccc3c2CCCC3)CC12Cc1ccccc1C2,GI50,MDA-MB-435,9.38 µM (inactive)
same,GI50,SK-MEL-28,14.4 µM (inactive)
same,GI50,OVCAR-8,9.84 µM (inactive)
same,GI50,SNB-75,20.4 µM (inactive)
same,GI50,RPMI-8226,4.35 µM (inactive)
same,GI50,Malme-3M,5.48 µM (inactive)
same,GI50,HCT-116,5.43 µM (inactive)
same,GI50,K562,11.8 µM (inactive)
same,GI50,HCT-15,4.75 µM
same,GI50,NCI-H460,4.93 µM (inactive)
same,GI50,OVCAR-4,40.8 µM (inactive)
same,GI50,KM12,16.4 µM (inactive)
same,GI50,SNB-19,58.6 µM (inactive)
same,GI50,SK-MEL-2,17.4 µM (inactive)
same,GI50,MOLT-4,4.03 µM (inactive)
same,GI50,ACHN,7.73 µM (inactive)
same,GI50,NCI-H522,12.8 µM (inactive)
same,GI50,BT-549,81.8 µM (inactive)
same,GI50,IGROV-1,30.2 µM (inactive)
same,GI50,PC-3,22.9 µM (inactive)
same,GI50,786-0,14.2 µM (inactive)
same,GI50,MDA-MB-231,18.1 µM (inactive)
same,GI50,RXF 393,11 µM (inactive)
same,GI50,CCRF-CEM,10.8 µM (inactive)
same,GI50,HOP-92,12.7 µM (inactive)
same,GI50,Hs-578T,22.5 µM (inactive)
same,GI50,NCI-H23,10.3 µM (inactive)
same,GI50,NCI/ADR-RES,15.8 µM (inactive)
same,GI50,MCF7,17 µM (inactive)
same,GI50,SF-295,19 µM (inactive)
same,GI50,CAKI-1,7.62 µM (inactive)
same,GI50,COLO 205,15.1 µM (inactive)
same,GI50,HL-60,11.2 µM (inactive)
same,GI50,EKVX,20 µM (inactive)
same,GI50,OVCAR-5,21.8 µM (inactive)
same,GI50,HCC 2998,19.1 µM (inactive)
same,GI50,UACC-62,13.5 µM (inactive)
same,GI50,T47D,17.9 µM (inactive)
same,GI50,SK-MEL-5,6.19 µM (inactive)
same,GI50,OVCAR-3,9.93 µM (inactive)
same,GI50,UO-31,5.28 µM (inactive)
same,GI50,HT-29,5.96 µM (inactive)
same,GI50,SF-268,43.2 µM (inactive)
same,GI50,SR,4.57 µM (inactive)
same,GI50,A498,11.1 µM (inactive)
same,GI50,SF-539,6.31 µM (inactive)
same,GI50,SW-620,4.88 µM (inactive)
same,GI50,HOP-62,16.8 µM (inactive)
same,GI50,UACC-257,16.6 µM (inactive)
same,GI50,MDA-N,6.43 µM (inactive)
same,GI50,M14,21 µM (inactive)
same,GI50,SN12C,21.8 µM (inactive)
same,GI50,TK-10,28 µM (inactive)
same,GI50,A549,13.1 µM (inactive)
same,GI50,SK-OV-3,30.6 µM (inactive)
same,GI50,DU-145,22.3 µM (inactive)
same,GI50,U-251,27.2 µM (inactive)
same,GI50,NCI-H226,9.53 µM (inactive)
same,GI50,LOX IMVI,10.1 µM (inactive)
